In US20170050957A1, “4-AMINO-6-(HETEROCYCLIC)PICOLINATES AND 6-AMINO-2-(HETEROCYCLIC)PYRIMIDINE-4-CARBOXYLATES AND THEIR USE AS HERBICIDES” (Dow AgroSciences LLC, priority 2013, published 2017):
Read-outs that look alike come from different tables or passages of the source.

How the values were obtained:
[1] = test system: Key Broadleaf Weed and Crop Species; assay: Post-emergent Test II herbicidal activity (Table 15); assay type: in vivo; conditions: post-emergence, 336 h, 14 d; for pest or weed control at 35 g/ha: 35 g ai/ha; for pest or weed control at 70 g/ha: 70 g ai/ha; for pest or weed control at 140 g/ha: 140 g ai/ha
Method in brief: (§1)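 Herbicidal effect scored as percent visual injury, 14 d after post-emergent application. Spray solutions contained acetone, DMSO, isopropyl alcohol, crop oil concentrate and surfactant, applied at 187 L/ha to young plants (1-2 true leaves).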

[2] = test system: Key Grass and Sedge Weeds as well as Grass Crops; assay: Post-emergent Test II herbicidal activity (Table 16); assay type: in vivo; conditions: post-emergence, 336 h, 14 d; for pest or weed control at 35 g/ha: 35 g ai/ha; for pest or weed control at 70 g/ha: 70 g ai/ha; for pest or weed control at 140 g/ha: 140 g ai/ha
Method in brief: as §1

[3] = Abutilon theophrasti, velvetleaf (Abutilon theophrasti), read-out: Visual Growth Reduction (%) 14 Days After Application, ABUTH
[4] = Amaranthus retroflexus, redroot pigweed (Amaranthus retroflexus), read-out: Visual Growth Reduction (%) 14 Days After Application, AMARE
[5] = Brassica napus, oilseed rape, canola (Brassica napus), read-out: Visual Growth Reduction (%) 14 Days After Application, BRSNN
[6] = Chenopodium album, lambsquarters (Chenopodium album), read-out: Visual Growth Reduction (%) 14 Days After Application, CHEAL
[7] = Euphorbia heterophylla, wild poinsettia (Euphorbia heterophylla), read-out: Visual Growth Reduction (%) 14 Days After Application, EPHHL
[8] = Helianthus annuus, sunflower (Helianthus annuus), read-out: Visual Growth Reduction (%) 14 Days After Application, HELAN
[9] = Cyperus esculentus, yellow nutsedge (Cyperus esculentus), read-out: Visual Growth Reduction (%) 14 Days After Application, CYPES
[10] = Echinochloa crus-galli, barnyardgrass (Echinochloa crus-galli), read-out: Visual Growth Reduction (%) 14 Days After Application, ECHCG
[11] = Oryza sativa, rice (Oryza sativa), read-out: Visual Growth Reduction (%) 14 Days After Application, ORYSA
[12] = Setaria faberi, giant foxtail (Setaria faberi), read-out: Visual Growth Reduction (%) 14 Days After Application, SETFA
[13] = Triticum aestivum, wheat, spring (Triticum aestivum), read-out: Visual Growth Reduction (%) 14 Days After Application, TRZAS
[14] = Zea mays, maize, corn (Zea mays), read-out: Visual Growth Reduction (%) 14 Days After Application, ZEAMX

SMILES | pest or weed control at 35 g/ha [1, 3] | pest or weed control at 70 g/ha [1, 3] | pest or weed control at 140 g/ha [1, 3] | pest or weed control at 140 g/ha [1, 4] | pest or weed control at 35 g/ha [1, 5] | pest or weed control at 70 g/ha [1, 5] | pest or weed control at 140 g/ha [1, 5] | pest or weed control at 35 g/ha [1, 6] | pest or weed control at 70 g/ha [1, 6] | pest or weed control at 140 g/ha [1, 6] | pest or weed control at 35 g/ha [1, 7] | pest or weed control at 70 g/ha [1, 7] | pest or weed control at 140 g/ha [1, 7] | pest or weed control at 35 g/ha [1, 8] | pest or weed control at 70 g/ha [1, 8] | pest or weed control at 140 g/ha [1, 8] | pest or weed control at 35 g/ha [2, 9] | pest or weed control at 70 g/ha [2, 9] | pest or weed control at 140 g/ha [2, 9] | pest or weed control at 35 g/ha [2, 10] | further results
COC(=O)c1nc(-c2ccc3c(ccn3C)c2)c(F)c(N)c1Cl [Compound 1.03] | 0 to 29% | 0 to 29% | 75 to 84% | 85 to 94% | 0 to 29% | 0 to 29% | 0 to 29% | 85 to 94% | 85 to 94% | 95 to 100% | 95 to 100% | 95 to 100% | 85 to 94% | 0 to 29% | 0 to 29% | 45 to 59% | 0 to 29% | 0 to 29% | 0 to 29% | 0 to 29% | pest or weed control at 70 g/ha [2, 10]: 0 to 29%; pest or weed control at 140 g/ha [2, 10]: 60 to 74%; pest or weed control at 35 g/ha [2, 11]: 0 to 29%; pest or weed control at 70 g/ha [2, 11]: 0 to 29%; pest or weed control at 140 g/ha [2, 11]: 0 to 29%; pest or weed control at 35 g/ha [2, 12]: 0 to 29%; pest or weed control at 70 g/ha [2, 12]: 0 to 29%; pest or weed control at 140 g/ha [2, 12]: 0 to 29%; pest or weed control at 35 g/ha [2, 13]: 0 to 29%; pest or weed control at 70 g/ha [2, 13]: 0 to 29%; pest or weed control at 140 g/ha [2, 13]: 0 to 29%; pest or weed control at 35 g/ha [2, 14]: 0 to 29%; pest or weed control at 70 g/ha [2, 14]: 0 to 29%; pest or weed control at 140 g/ha [2, 14]: 0 to 29%; melting point: 125 to 127 °C
COC(=O)c1nc(-c2cccc3cc[nH]c23)c(F)c(N)c1Cl [Compound 1.47] | 0 to 29% | 0 to 29% | 0 to 29% | 30 to 44% | 0 to 29% | 0 to 29% | 0 to 29% | 75 to 84% | 75 to 84% | 85 to 94% | 0 to 29% | 0 to 29% | 0 to 29% | 0 to 29% | 0 to 29% | 45 to 59% | 0 to 29% | 0 to 29% | 0 to 29% | 0 to 29% | pest or weed control at 35 g/ha [1, 4]: 0 to 29%; pest or weed control at 70 g/ha [1, 4]: 0 to 29%; pest or weed control at 70 g/ha [2, 10]: 0 to 29%; pest or weed control at 140 g/ha [2, 10]: 0 to 29%; pest or weed control at 35 g/ha [2, 11]: 0 to 29%; pest or weed control at 70 g/ha [2, 11]: 0 to 29%; pest or weed control at 140 g/ha [2, 11]: 0 to 29%; pest or weed control at 35 g/ha [2, 12]: 0 to 29%; pest or weed control at 70 g/ha [2, 12]: 0 to 29%; pest or weed control at 140 g/ha [2, 12]: 0 to 29%; pest or weed control at 35 g/ha [2, 13]: 0 to 29%; pest or weed control at 70 g/ha [2, 13]: 0 to 29%; pest or weed control at 140 g/ha [2, 13]: 0 to 29%; pest or weed control at 35 g/ha [2, 14]: 0 to 29%; pest or weed control at 70 g/ha [2, 14]: 0 to 29%; pest or weed control at 140 g/ha [2, 14]: 0 to 29%; melting point: 96 to 100 °C
Nc1c(Cl)c(C(=O)O)nc(-c2ccc3sccc3c2)c1Cl [Compound 3.02, 4-Amino-6-(benzo[b]thiophen-5-yl)-3,5-dichloropicolinic acid] | 0 to 29% | 0 to 29% | 0 to 29% | 95 to 100% | 0 to 29% | 0 to 29% | 0 to 29% | 85 to 94% | 85 to 94% | 85 to 94% | 0 to 29% | 0 to 29% | 0 to 29% | 60 to 74% | 75 to 84% | 85 to 94% | 0 to 29% | 0 to 29% | 0 to 29% | 0 to 29% | pest or weed control at 35 g/ha [1, 4]: 95 to 100%; pest or weed control at 70 g/ha [1, 4]: 95 to 100%; pest or weed control at 70 g/ha [2, 10]: 0 to 29%; pest or weed control at 140 g/ha [2, 10]: 0 to 29%; pest or weed control at 35 g/ha [2, 11]: 0 to 29%; pest or weed control at 70 g/ha [2, 11]: 0 to 29%; pest or weed control at 140 g/ha [2, 11]: 0 to 29%; pest or weed control at 35 g/ha [2, 12]: 0 to 29%; pest or weed control at 70 g/ha [2, 12]: 0 to 29%; pest or weed control at 140 g/ha [2, 12]: 0 to 29%; pest or weed control at 35 g/ha [2, 13]: 0 to 29%; pest or weed control at 70 g/ha [2, 13]: 0 to 29%; pest or weed control at 140 g/ha [2, 13]: 0 to 29%; pest or weed control at 35 g/ha [2, 14]: 0 to 29%; pest or weed control at 70 g/ha [2, 14]: 60 to 74%; pest or weed control at 140 g/ha [2, 14]: 60 to 74%; melting point: 157 to 159 °C
